In US9040545B2, “Heterocyclyl pyrazolopyrimidine analogues as selective JAK inhibitors” (Cellzome Limited, priority 2010, dated 2015):

The compounds below were run against T1, JAK3 (Homo sapiens, UniProt P52333) (assay: Kinobeads assay, JAK3). Conditions: mixed Molt4/Ramos lysate, read-out: Inhibition values (IC50) JAK3.
T1 construct: endogenous in cells; host or cells: mixed Molt4/Ramos lysate (1:2)
T1 sequence (P52333 1-1124): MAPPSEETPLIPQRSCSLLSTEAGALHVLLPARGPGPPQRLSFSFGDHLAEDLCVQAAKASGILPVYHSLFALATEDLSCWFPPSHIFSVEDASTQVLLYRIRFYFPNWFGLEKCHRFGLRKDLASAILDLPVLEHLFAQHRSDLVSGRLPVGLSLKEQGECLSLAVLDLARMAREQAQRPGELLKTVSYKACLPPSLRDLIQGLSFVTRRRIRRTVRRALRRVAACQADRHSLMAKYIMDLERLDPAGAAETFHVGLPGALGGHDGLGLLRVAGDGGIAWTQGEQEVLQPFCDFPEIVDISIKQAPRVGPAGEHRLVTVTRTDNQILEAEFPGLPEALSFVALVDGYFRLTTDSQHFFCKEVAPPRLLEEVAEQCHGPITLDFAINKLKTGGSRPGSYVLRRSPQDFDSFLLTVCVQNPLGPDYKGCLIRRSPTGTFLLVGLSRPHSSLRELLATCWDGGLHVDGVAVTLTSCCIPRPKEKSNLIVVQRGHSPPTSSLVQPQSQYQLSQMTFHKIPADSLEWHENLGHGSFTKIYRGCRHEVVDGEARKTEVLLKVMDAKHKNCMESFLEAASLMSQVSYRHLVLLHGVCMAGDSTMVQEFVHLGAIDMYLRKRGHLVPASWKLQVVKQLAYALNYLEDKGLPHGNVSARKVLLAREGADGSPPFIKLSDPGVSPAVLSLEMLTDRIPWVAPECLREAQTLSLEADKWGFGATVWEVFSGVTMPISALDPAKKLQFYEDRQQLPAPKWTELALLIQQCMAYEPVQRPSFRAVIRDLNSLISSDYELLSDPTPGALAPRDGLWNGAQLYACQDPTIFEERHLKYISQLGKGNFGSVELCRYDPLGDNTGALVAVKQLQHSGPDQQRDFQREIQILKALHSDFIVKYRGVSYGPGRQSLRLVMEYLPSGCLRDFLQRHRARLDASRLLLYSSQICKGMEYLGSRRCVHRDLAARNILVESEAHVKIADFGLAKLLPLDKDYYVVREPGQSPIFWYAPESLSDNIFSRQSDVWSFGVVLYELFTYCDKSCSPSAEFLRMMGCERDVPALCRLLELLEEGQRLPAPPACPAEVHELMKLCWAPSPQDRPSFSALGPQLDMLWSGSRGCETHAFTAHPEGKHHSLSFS
Assay type: binding
Procedure: The compounds of the present invention as described in the previous examples were tested in a Kinobeads™ assay as described for ZAP-70 (WO-A 2007/137867). Briefly, test compounds (at various concentrations) and the affinity matrix with the immobilized aminopyrido-pyrimidine ligand 24 were added to cell lysate aliquots and allowed to bind to the proteins in the lysate sample. After the incubation time the beads with captured proteins were separated from the lysate. Bound proteins were then eluted and the presence of JAK2 and JAK3 was detected and quantified using specific antibodies in a dot blot procedure and the Odyssey infrared detection system. Dose response curves for individual kinases were generated and IC50 values calculated. Kinobeads™ assays for ZAP-70 (WO-A 2007/137867) and for kinase selectivity profiling (WO-A 2006/134056) have been previously described.
The affinity matrix was washed two times with 15 mL of 1×DP buffer containing 0.2% NP40 (IGEPAL® CA-630, Sigma, #I3021) and then resuspended in 1×DP buffer containing 0.2% NP40 (3% beads slurry).
5×DP buffer 250 mM Tris-HCl pH 7.4, 25% Glycerol, 7.5 mM MgCl2, 750 mM NaCl, 5 mM Na3VO4; filter the 5×DP buffer through a 0.22 μm filter and store in aliquots at −80° C. The 5×DP buffer is diluted with H2O to 1×DP buffer containing 1 mM DTT and 25 mM NaF.
Stock solutions of test compounds were prepared in DMSO. In a 96 well plate 30 μL solution of diluted test compounds at 5 mM in DMSO were prepared. Starting with this solution a 1:3 dilution series (9 steps) was prepared. For control experiments (no test compound) a buffer containing 2% DMSO was used.
Molt4 cells (ATCC catalogue number CRL-1582) and Ramos cells (ATCC catalogue number CRL-1596) were grown in 1 L Spinner flasks (Integra Biosciences, #182101) in suspension in RPMI 1640 medium (Invitrogen, #21875-034) supplemented with 10% Fetal Bovine Serum (Invitrogen) at a density between 0.15×106 and 1.2×10^6 cells/mL. Cells were harvested by centrifugation, washed once with 1×PBS buffer (Invitrogen, #14190-094) and cell pellets were frozen in liquid nitrogen and subsequently stored at −80° C. Cells were homogenized in a Potter S homogenizer in lysis buffer: 50 mM Tris-HCl, 0.8% NP40, 5% glycerol, 150 mM NaCl, 1.5 mM MgCl2, 25 mM NaF, 1 mM sodium vanadate, 1 mM DTT, pH 7.5. One complete EDTA-free tablet (protease inhibitor cocktail, Roche Diagnostics, 1873580) per 25 mL buffer was added. The material was dounced 10 times using a mechanized POTTER S, transferred to 50 mL falcon tubes, incubated for 30 minutes on ice and spun down for 10 minutes at 20,000 g at 4° C. (10,000 rpm in Sorvall SLA600, precooled). The supernatant was transferred to an ultracentrifuge (UZ)-polycarbonate tube (Beckmann, 355654) and spun for 1 hour at 100,000 g at 4° C. (33.500 rpm in Ti50.2, precooled). The supernatant was transferred again to a fresh 50 mL falcon tube, the protein concentration was determined by a Bradford assay (BioRad) and samples containing 50 mg of protein per aliquot were prepared. The samples were immediately used for experiments or frozen in liquid nitrogen and stored frozen at −80° C.
Cell lysate (approximately 50 mg protein per plate) was thawed in a water bath at room temperature and then stored on ice. To the thawed cell lysate 1×DP 0.8% NP40 buffer containing protease inhibitors (1 tablet for 25 mL buffer; EDTA-free protease inhibitor cocktail; Roche Diagnostics 1873580) was added in order to reach a final protein concentration of 10 mg/mL total protein. The diluted cell lysate was stored on ice. Mixed Molt4/Ramos lysate was prepared by combining one volume of Molt4 lysate and two volumes of Ramos lysate (ratio 1:2).
To a 96 well filter plate (Multiscreen HTS, BV Filter Plates, Millipore #MSBVN1250) were added per well: 100 μL affinity matrix (3% beads slurry), 3 μL of compound solution, and 50 μL of diluted lysate. […]

**Q.** Which IC50 does the source give for `Cn1cc(Nc2ncc3cnn(Cc4cccc(N5CC6(COC6)C5)c4)c3n2)cn1` [Example 89, 1-(3-(2-oxa-6-azaspiro[3.3]heptan-6-yl)benzyl)-N-(1-methyl-1H-pyrazol-4-yl)-1H-pyrazolo[3,4-d]pyrimidin-6-amine] here?
**A.** The IC50 was under 0.1 µM.

**Q.** Which IC50 does the source give for `Cn1cc(Nc2ncc3cnn(Cc4cc(F)cc(N5CC6(COC6)C5)c4)c3n2)cn1` [Example 90, 1-(3-fluoro-5-(2-oxa-6-azaspiro[3.3]heptan-6-yl)benzyl)-N-(1-methyl-1H-pyrazol-4-yl)-1H-pyrazolo[3,4-d]pyrimidin-6-amine] here?
**A.** The IC50 was under 0.1 µM.

**Q.** Which IC50 does the source give for `Cn1cc(Nc2ncc3cnn(Cc4cccc(N5CC6(COC6)C5)c4F)c3n2)cn1` [Example 91, 1-(2-fluoro-3-(2-oxa-6-azaspiro[3.3]heptan-6-yl)benzyl)-N-(1-methyl-1H-pyrazol-4-yl)-1H-pyrazolo[3,4-d]pyrimidin-6-amine] here?
**A.** Its IC50 is under 0.1 µM.

**Q.** How did the IC50 turn out when `Cn1cc(Nc2ncc3cnn(Cc4cc(F)cc(N5CCNCC5)c4)c3n2)cn1` [Example 92, 1-(3-fluoro-5-(piperazin-1-yl)benzyl)-N-(1-methyl-1H-pyrazol-4-yl)-1H-pyrazolo[3,4-d]pyrimidin-6-amine] was run?
**A.** The IC50 was under 0.1 µM.

**Q.** How did the IC50 turn out when `OCCn1cc(Nc2ncc3cnn(Cc4cc(F)cc(N5CCNCC5)c4)c3n2)cn1` [Example 93, 2-(4-((1-(3-fluoro-5-(piperazin-1-yl)benzyl)-1H-pyrazolo[3,4-d]pyrimidin-6-yl)amino)-1H-pyrazol-1-yl)ethanol] was run?
**A.** The IC50 was under 0.1 µM.

**Q.** How did the IC50 turn out when `Fc1cc(N2CCOCC2)c(F)c(Cn2ncc3cnc(Nc4cnn(CC5CCNC5)c4)nc32)c1F` (stereo not drawn) [Example 94, N-(1-(pyrrolidin-3-ylmethyl)-1H-pyrazol-4-yl)-1-(2,3,6-trifluoro-5-morpholinobenzyl)-1H-pyrazolo[3,4-d]pyrimidin-6-amine] was run?
**A.** The IC50 was under 0.1 µM.

**Q.** How did the IC50 turn out when `Cn1cc(Nc2ncc3cnn(Cc4cc(F)cc(N5CCNCC5)c4F)c3n2)cn1` [Example 95, 1-(2,5-difluoro-3-(piperazin-1-yl)benzyl)-N-(1-methyl-1H-pyrazol-4-yl)-1H-pyrazolo[3,4-d]pyrimidin-6-amine] was run?
**A.** Its IC50 is under 0.1 µM.

**Q.** Which IC50 does the source give for `OCCn1cc(Nc2ncc3cnn(Cc4cc(F)cc(N5CCNCC5)c4F)c3n2)cn1` [Example 96, 2-(4-((1-(2,5-difluoro-3-(piperazin-1-yl)benzyl)-1H-pyrazolo[3,4-d]pyrimidin-6-yl)amino)-1H-pyrazol-1-yl)ethanol] here?
**A.** The IC50 was under 0.1 µM.

**Q.** With `CN(C)CC(F)Cn1cc(Nc2ncc3cnn(Cc4cc(F)cc(N5CCOCC5=O)c4)c3n2)cn1` (stereo not drawn) [Example 97, 4-(3-((6-((1-(3-(dimethylamino)-2-fluoropropyl)-1H-pyrazol-4-yl)amino)-1H-pyrazolo[3,4-d]pyrimidin-1-yl)methyl)-5-fluorophenyl)morpholin-3-one] as the compound, how does the IC50 read?
**A.** The IC50 was under 0.1 µM.

**Q.** `Cn1cc(Nc2ncc3cnn(Cc4cc(C(=O)N5CCOCC5)cc(F)c4F)c3n2)cn1` [Example 98, (3,4-difluoro-5-((6-((1-methyl-1H-pyrazol-4-yl)amino)-1H-pyrazolo[3,4-d]pyrimidin-1-yl)methyl)phenyl)(morpholino)methanone] was tested. Which IC50 did it give?
**A.** The IC50 was under 0.1 µM.

**Q.** With `CNCCCn1cc(Nc2ncc3cnn(Cc4cc(F)cc(N5CCOCC5=O)c4)c3n2)cn1` [Example 99, 4-(3-fluoro-5-((6-((1-(3-(methylamino)propyl)-1H-pyrazol-4-yl)amino)-1H-pyrazolo[3,4-d]pyrimidin-1-yl)methyl)phenyl)morpholin-3-one] as the compound, how does the IC50 read?
**A.** The IC50 was under 0.1 µM.

**Q.** Which IC50 does the source give for `Cn1cc(Nc2ncc3cnn(Cc4cccc(N5CCN(S(C)(=O)=O)CC5)c4)c3n2)cn1` [Example 100, N-(1-methyl-1H-pyrazol-4-yl)-1-(3-(4-(methylsulfonyl)piperazin-1-yl)benzyl)-1H-pyrazolo[3,4-d]pyrimidin-6-amine] here?
**A.** The IC50 was under 0.1 µM.

**Q.** For `O=C1COCCN1c1cc(F)cc(Cn2ncc3cnc(Nc4cnn(CC5CCNC5)c4)nc32)c1` (stereo not drawn) [Example 101, 4-(3-fluoro-5-((6-((1-(pyrrolidin-3-ylmethyl)-1H-pyrazol-4-yl)amino)-1H-pyrazolo[3,4-d]pyrimidin-1-yl)methyl)phenyl)morpholin-3-one], which IC50 is on record?
**A.** Its IC50 is under 0.1 µM.

**Q.** Which IC50 does the source give for `O=C1COCCN1c1cc(F)cc(Cn2ncc3cnc(Nc4cnn(C5CCNCC5)c4)nc32)c1` [Example 102, 4-(3-fluoro-5-((6-((1-(piperidin-4-yl)-1H-pyrazol-4-yl)amino)-1H-pyrazolo[3,4-d]pyrimidin-1-yl)methyl)phenyl)morpholin-3-one] here?
**A.** Its IC50 is under 0.1 µM.

**Q.** For `Cn1cc(Nc2ncc3cnn(Cc4cccc(N5CCOCC5)c4Cl)c3n2)cn1` [Example 103, 1-(2-chloro-3-morpholinobenzyl)-N-(1-methyl-1H-pyrazol-4-yl)-1H-pyrazolo[3,4-d]pyrimidin-6-amine], which IC50 is on record?
**A.** The IC50 was under 0.1 µM.

**Q.** With `Cn1cc(Nc2ncc3cnn(Cc4cccc(N5CCC6(COC6)C5)c4)c3n2)cn1` [Example 104, 1-(3-(2-oxa-6-azaspiro[3.4]octan-6-yl)benzyl)-N-(1-methyl-1H-pyrazol-4-yl)-1H-pyrazolo[3,4-d]pyrimidin-6-amine] as the compound, how does the IC50 read?
**A.** Its IC50 is 0.1 to 1 µM.

**Q.** How did the IC50 turn out when `O=C1CC(Cn2cc(Nc3ncc4cnn(Cc5cc(F)cc(N6CCOCC6=O)c5)c4n3)cn2)CN1` (stereo not drawn) [Example 105, 4-(3-fluoro-5-((6-((1-((5-oxopyrrolidin-3-yl)methyl)-1H-pyrazol-4-yl)amino)-1H-pyrazolo[3,4-d]pyrimidin-1-yl)methyl)phenyl)morpholin-3-one] was run?
**A.** The IC50 was under 0.1 µM.

**Q.** For `O=C1COCCN1c1cc(F)cc(Cn2ncc3cnc(Nc4cnn(CCS(=O)(=O)NC5CC5)c4)nc32)c1` [Example 106, N-cyclopropyl-2-(4-((1-(3-fluoro-5-(3-oxomorpholino)benzyl)-1H-pyrazolo[3,4-d]pyrimidin-6-yl)amino)-1H-pyrazol-1-yl)ethanesulfonamide], which IC50 is on record?
**A.** The IC50 was under 0.1 µM.
